Measurements reported in PMC10097024, “Cytotoxic and Antibacterial Prenylated Acylphloroglucinols from Hypericum olympicum L” (Plants, 2023).
“And” between values parts separate entries of the source, which are not always exact repeats. Equal values may be shown once. Read-outs that look alike come from different tables or passages of the source.

Assays:
[1] = system: EA.hy926; assay: MTT cytotoxicity test; type: cell-based, human
Text: (§1) The group of human cell lines used in this study were represented by the tumor cell lines MDA-MB (breast carcinoma), EJ (urinary bladder carcinoma), K-562 (chronic myeloid leukemia), HL-60 (acute pre-myeloid leukemia), HL-60/DOX (multi-drug resistant HL-60 cell line, with over expression of MRP-1) and the non-tumorigenic cell lines HEK-293 (embryonic kidney cells) and EA.hy926 (vascular endothelial cells). EJ, HL60 and EA.hy926 were purchased from American Type Culture Collection (ATCC) (Manassas, Virginia). The other cell lines were purchased from the German Collection of Microorganisms and Cell Cultures (DSMZ GmbH, Braunschweig, Germany). HL-60/DOX cell lines were generated by periodically treating HL-60 cells with anthracyclins. The conditions in which the cell culture flasks were maintained were as follows: 37 °C in an incubator “BB 16-Function Line” Heraeus (Kendro, Hanau, Germany) with 5% CO2 humidified atmosphere. The growth medium was 90% RPMI-1640, supplemented with 10% FBS and 2 mM L-glutamine. MDA-MB-231, EJ, HEK-293 and EA.hy926 cells were maintained as adherent monolayer cultures while all the other (leukemic) cell lines were grown as suspension type cultures. Cells were maintained in log phase: the adherent cell lines were subjected to trypsinization 1–2 times a week and the leukemic cell lines were passaged 2–3 times a week by removing of part of the cellular suspension and substituting it with fresh medium.
(§2) The evaluation of cytotoxic activity was conducted by MTT test as described previously. The median inhibitory concentration (IC50) values which represent the half-maximal concentration values were calculated from sigmoidal concentration–response curves, using non-linear regression analysis (Curve fit, GraphPad Prizm 5.0 software, GraphPad Software Inc., San Diego, CA, USA). The selectivity index was calculated as the ratio of the IC50 of a non-cancerous line (HEK-293 or EA.hy926) and the average IC50 of all chemosensitive tested tumor cell lines (x). Therefore, SI=IC50HEK-293/IC50x . The resistance index (RI) was calculated as the ratio of IC50 of the multi-drug resistant HL-60/DOX cell line and the IC50 of its parent cell line: RI=IC50HL-60/DOX/IC50HL-60 .

[2] = system: EJ; assay: MTT cytotoxicity test; type: cell-based, human; settings: 72 h exposure
Text: as §1, §2

[3] = system: HEK-293; assay: MTT cytotoxicity test; type: cell-based, human
Text: as §1, §2

[4] = system: HL-60/DOX; assay: MTT cytotoxicity test; type: cell-based, human; settings: 72 h exposure
Text: as §1, §2

[5] = system: HL-60; assay: MTT cytotoxicity test; type: cell-based, human; settings: HL-60, 72 h exposure
Text: as §1, §2

[6] = system: K-562; assay: MTT cytotoxicity test; type: cell-based, human
Text: as §1, §2

[7] = system: MDA-MB-231; assay: MTT cytotoxicity test; type: cell-based, human; settings: MDA-MB-231, 72 h exposure
Text: as §1, §2

[8] = system: human tumor (MDA-MB-231, EJ, K-562, HL-60 and HL-60/DOX) cell lines; assay: MTT cytotoxicity test, tumor cell line panel; type: cell-based
Text: as §1, §2

[9] = system: MRSA biofilm; assay: Biofilm assay of MRSA; type: cell-based, Staphylococcus aureus; settings: for Absorbance at 550 nm of the MRSA biofilm (crystal violet): replicate wells; for IC50: read-out: MBIC50 (median biofilm inhibitory concentration)
Text: The Gram-positive bacterial strains that were examined for susceptibility were: Staphylococcus aureus (ATCC 29213, American Type Cell Culture Collection, Manassas, VA, USA), Staphylococcus aureus—MRSA (NBIMCC 8327-resistant to methicillin and oxacillin, National Bulgarian Collection for Industrial Microorganisms and Cell Cultures, Sofia, Bulgaria), Enterococcus faecalis (ATCC 29212) and Streptococcus pyogenes (SAIMC 10535, Collection of the Stephan Angeloff Institute of Microbiology, Sofia, Bulgaria). The only Gram-negative bacterial strain used was Escherichia coli (ATCC 35218). Bacteria were maintained in Trypticase Soy Broth (TSB, Himedia, India) at 37 °C, aerobic conditions. For the experiments brain heart infusion (BHI) broth (#M210 HiMedia, Mumbai, India) was used for E. faecalis and S. pyogenes and Mueller Hinton broth (MHB, #M0405B) from Thermo Scientific-Oxoid (Basingstoke, UK)—for all other strains.
The bacterial inoculum was prepared as described above for the BMD. […] After that an optimized protocol was applied for the visualization of the biofilm. Firstly, the supernatant was removed, and planktonic cells were removed by washing the wells carefully 3× with 200 μL/well PBS. Then, fixing of the remaining cells was performed by incubation with 200 μL/well methanol for 15 sec at room temperature. The methanol was removed and the plate was dried by air for 5–10 s. Next, 50 μL of 2% Hucker crystal violet was poured into the wells and excess stain was rinsed off by running tap water. After that, the cells were air dried and the biofilm formation in the wells was documented microscopically (40×, Inverted trinocular biological microscope model BIB-100 and digital camera B-CAM16, application software B-View, Boeco, Hamburg, Germany). Then the dye bound to biofilm in the wells was re-solubilized with 160 μL 33% acetic acid and the absorbance of each well was measured at 550 nm with lid (Table S1 in Supplementary Materials). […] MBIC were assessed visually and MBIC50 were calculated by GraphPad Prism software with a mathematical model for a dose–response relationship (variable slope) after normalization of the data and logarithmic transformation of the applied concentrations (X-data).

[10] = Homo sapiens, EA.hy 926, EA.hy926, 72 h exposure
[11] = Homo sapiens, HEK293, HEK-293, 72 h exposure
[12] = Homo sapiens, K562, K-562, 72 h exposure
[13] = Homo sapiens, average IC50 of all chemo-sensitive tested tumor cell lines, read-out: x
[14] = MRSA biofilm, assessed visually
[15] = Staphylococcus aureus, MRSA biofilm, interval in brackets
[16] = MRSA biofilm, interval in brackets

Row | Molecule | IC50 [1, 10] [µM] | IC50 ([2]; Homo sapiens) [µM] | IC50 [3, 11] [µM] | IC50 ([4]; Homo sapiens) [µM] | IC50 ([5]; Homo sapiens) [µM] | IC50 [6, 12] [µM] | IC50 ([7]; Homo sapiens) [µM] | IC50 [8, 13] [µM] | Absorbance at 550 nm of the MRSA biofilm (crystal violet) ([9]; 0.125 mg/L) | Absorbance at 550 nm of the MRSA biofilm (crystal violet) ([9]; 0.25 mg/L) | Absorbance at 550 nm of the MRSA biofilm (crystal violet) ([9]; 0.5 mg/L) | Absorbance at 550 nm of the MRSA biofilm (crystal violet) ([9]; 1 mg/L) | MBIC ([9]; MRSA biofilm) [mg/L] | MBIC (minimum biofilm inhibitory concentration) ([9]; MRSA biofilm) [µM] | MBIC (minimum biofilm inhibitory concentration) [9, 14] [mg/L] | IC50 [9, 15] | further results
1 | CC(C)=CCC[C@]1(C)[C@@H](CC=C(C)C)C[C@]2(C)C(=O)C(CC=C(C)C)=C(O)[C@@]1(C(=O)C(C)C)C2=O [Compound 3, hyperpolyphyllirin/hyperibine J] | 19.9 ± 3.1 | 8.02 ± 1.6 | 10.7 ± 2.1 | 1.28 ± 0.2 | 10.9 ± 1.9 | 3.17 ± 0.3 | 2.63 ± 0.3 | 6.18 | 0.347 and 0.336 | 0.376 and 0.403 | 0.276 and 0.394 | 0.249 and 0.184 | 4 | 8.29 | 4.0 | 0.17 µg/mL and 350 nM | Absorbance at 550 nm of the MRSA biofilm (crystal violet) ([9]; 2 mg/L): 0.353 and 0.444; Absorbance at 550 nm of the MRSA biofilm (crystal violet) ([9]; 4 mg/L): 0.110 and 0.099
2 | CC(C)=CCC[C@]1(C)[C@@H](CC=C(C)C)C[C@H]2C(=O)[C@]1(C(=O)C(C)C)C(=O)C(CC=C(C)C)=C2O [Compound 5, (1S,5R,7S,8R)-4-hydroxy-1-isobutyryl-8-methyl-3,7-bis(3-methylbut-2-en-1-yl)-8-(4-methylpent-3-en-1-yl)bicyclo[3.3.1]non-3-ene-2,9-dione] | 9.43 ± 2 | 1.21 ± 0.3 | 0.89 ± 0.1 | 1.71 ± 0.2 | 1.16 ± 0.1 | 1.58 ± 0.1 | 1.31 ± 0.2 | 1.32 | 0.926 and 0.790 | 0.592 and 0.502 | 0.534 and 0.342 | 0.332 and 0.406 | 0.5 | 1.07 | 0.5 | 0.05 µg/mL and 120 nM | IC50 ([8]; Homo sapiens, tumor cell lines, MTT assay, read-out: IC50 (range over the tumor cell lines)): 1.16 to 1.71 µM; Absorbance at 550 nm of the MRSA biofilm (crystal violet) ([9]; 0.063 mg/L): 0.978 and 1.044
3 | (1R,5R,7S,8R)-4-hydroxy-5,8-dimethyl-3,7-bis(3-methylbut-2-en-1-yl)-1-(2-methylbutanoyl)-8-(4-methylpent-3-en-1-yl)bicyclo[3.3.1]non-3-ene-2,9-dione [Compound 4] | – | – | – | – | – | – | – | – | – | – | – | – | – | 25.17 | 12.5 | – | IC50 ([1]; EA.hy926, 72 h exposure): 5.34 ± 1.9 µM; IC50 [2]: 8.06 ± 1.7 µM; IC50 ([3]; HEK-293, 72 h exposure): 35.8 ± 4.4 µM; IC50 [4]: 12.2 ± 3.2 µM; IC50 [5]: 22.2 ± 3.4 µM; IC50 ([6]; K-562, 72 h exposure): 17.2 ± 3 µM; IC50 [7]: 12.5 ± 2.1 µM; IC50 ([8]; average IC50 of all chemo-sensitive tested tumor cell lines, read-out: x): 15 µM; Absorbance at 550 nm of the MRSA biofilm (crystal violet) ([9]; 0.78 mg/L): 0.324 and 0.229 and 0.230; Absorbance at 550 nm of the MRSA biofilm (crystal violet) ([9]; 1.56 mg/L): 0.248 and 0.194 and 0.193; Absorbance at 550 nm of the MRSA biofilm (crystal violet) ([9]; 3.13 mg/L): 0.264 and 0,195 and 0,139; Absorbance at 550 nm of the MRSA biofilm (crystal violet) ([9]; 6.25 mg/L): 0.184 and 0.121 and 0.092; Absorbance at 550 nm of the MRSA biofilm (crystal violet) ([9]; 12.5 mg/L): 0.152 and 0.150 and 0.072; MBIC50 (median biofilm inhibitory concentration) [9, 16]: 0.67 (0.39 to 1.17) mg/L; IC50 [9, 16]: 1.35 µM
